{"source": "patent US8192962B2", "about": "“Processes for detecting toxic substances” (Daikin Industries, Ltd., priority 2001, dated 2012)", "system": "Energy system protein genes", "experiment": "DNA chip mRNA expression in yeast, energy system protein genes (Table 4)", "assay_type": "cell-based, Saccharomyces cerevisiae S288C", "how_it_was_run": "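Values are treated/untreated fluorescence ratios from a whole-genome yeast DNA chip hybridized over 12 hours at 65° C with Cy3- or Cy5-labelled cDNA from poly(A) mRNA. Log-phase S288C yeast in YPD at 25° C had received a single toxic chemical for two hours, dosed to slow growth without killing.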"}
{"molecule": "CCCCCCCCCCCCOS(=O)(=O)[O-].[Na+]", "note": "[(18), sodium lauryl sulfate]", "values": [{"measurement": "The level of expressed mRNA in the presence of chemical substance/The level of expressed mRNA in the absence of chemical substance", "setting": "yeast gene YJR009C", "result": 1.3}, {"measurement": "The level of expressed mRNA in the presence of chemical substance/The level of expressed mRNA in the absence of chemical substance", "setting": "yeast gene YJR048W", "result": 1.2}, {"measurement": "The level of expressed mRNA in the presence of chemical substance/The level of expressed mRNA in the absence of chemical substance", "setting": "yeast gene YJR121W, cells incubated two hours with the chemical substance", "result": 1.4}, {"measurement": "The level of expressed mRNA in the presence of chemical substance/The level of expressed mRNA in the absence of chemical substance", "setting": "yeast gene YJR155W", "result": 1.4}, {"measurement": "The level of expressed mRNA in the presence of chemical substance/The level of expressed mRNA in the absence of chemical substance", "setting": "yeast gene YKL016C, cells incubated two hours with the chemical substance", "result": 1.7}, {"measurement": "The level of expressed mRNA in the presence of chemical substance/The level of expressed mRNA in the absence of chemical substance", "setting": "yeast gene YKL060C, cells incubated two hours with the chemical substance", "result": 1.7}, {"measurement": "The level of expressed mRNA in the presence of chemical substance/The level of expressed mRNA in the absence of chemical substance", "setting": "yeast gene YKL141W, cells incubated two hours with the chemical substance", "result": 1.8}, {"measurement": "The level of expressed mRNA in the presence of chemical substance/The level of expressed mRNA in the absence of chemical substance", "setting": "yeast gene YKL148C, cells incubated two hours with the chemical substance", "result": 1.0}, {"measurement": "The level of expressed mRNA in the presence of chemical substance/The level of expressed mRNA in the absence of chemical substance", "setting": "yeast gene YKR009C, cells incubated two hours with the chemical substance", "result": 2.5}, {"measurement": "The level of expressed mRNA in the presence of chemical substance/The level of expressed mRNA in the absence of chemical substance", "setting": "yeast gene YKR058W, cells incubated two hours with the chemical substance, 25° C., YPD medium", "result": 1.6}, {"measurement": "The level of expressed mRNA in the presence of chemical substance/The level of expressed mRNA in the absence of chemical substance", "setting": "yeast gene YKR097W", "result": 1.5}, {"measurement": "The level of expressed mRNA in the presence of chemical substance/The level of expressed mRNA in the absence of chemical substance", "setting": "yeast gene YLL041C, cells incubated two hours with the chemical substance", "result": 1.7}, {"measurement": "The level of expressed mRNA in the presence of chemical substance/The level of expressed mRNA in the absence of chemical substance", "setting": "yeast gene YLR038C, cells incubated two hours with the chemical substance", "result": 2.1}, {"measurement": "The level of expressed mRNA in the presence of chemical substance/The level of expressed mRNA in the absence of chemical substance", "setting": "yeast gene YLR044C, cells incubated two hours with the chemical substance", "result": 0.9}, {"measurement": "The level of expressed mRNA in the presence of chemical substance/The level of expressed mRNA in the absence of chemical substance", "setting": "yeast gene YLR134W, cells incubated two hours with the chemical substance", "result": 0.8}, {"measurement": "The level of expressed mRNA in the presence of chemical substance/The level of expressed mRNA in the absence of chemical substance", "setting": "yeast gene YLR258W, cells incubated two hours with the chemical substance", "result": 2.0}, {"measurement": "The level of expressed mRNA in the presence of chemical substance/The level of expressed mRNA in the absence of chemical substance", "setting": "yeast gene YLR284C, cells incubated two hours with the chemical substance", "result": 8.1}, {"measurement": "The level of expressed mRNA in the presence of chemical substance/The level of expressed mRNA in the absence of chemical substance", "setting": "yeast gene YLR295C, cells incubated two hours with the chemical substance, 25° C., YPD medium", "result": 1.5}, {"measurement": "The level of expressed mRNA in the presence of chemical substance/The level of expressed mRNA in the absence of chemical substance", "setting": "yeast gene YLR304C, cells incubated two hours with the chemical substance", "result": 0.7}, {"measurement": "The level of expressed mRNA in the presence of chemical substance/The level of expressed mRNA in the absence of chemical substance", "setting": "yeast gene YLR345W", "result": 1.4}, {"measurement": "The level of expressed mRNA in the presence of chemical substance/The level of expressed mRNA in the absence of chemical substance", "setting": "yeast gene YLR354C, cells incubated two hours with the chemical substance", "result": 1.5}, {"measurement": "The level of expressed mRNA in the presence of chemical substance/The level of expressed mRNA in the absence of chemical substance", "setting": "yeast gene YLR377C, cells incubated two hours with the chemical substance", "result": 1.4}, {"measurement": "The level of expressed mRNA in the presence of chemical substance/The level of expressed mRNA in the absence of chemical substance", "setting": "yeast gene YLR395C, cells incubated two hours with the chemical substance", "result": 2.3}, {"measurement": "The level of expressed mRNA in the presence of chemical substance/The level of expressed mRNA in the absence of chemical substance", "setting": "yeast gene YML087C", "result": 0.8}, {"measurement": "The level of expressed mRNA in the presence of chemical substance/The level of expressed mRNA in the absence of chemical substance", "setting": "yeast gene YML120C, cells incubated two hours with the chemical substance", "result": 1.6}, {"measurement": "The level of expressed mRNA in the presence of chemical substance/The level of expressed mRNA in the absence of chemical substance", "setting": "yeast gene YML129C, cells incubated two hours with the chemical substance", "result": 1.3}, {"measurement": "The level of expressed mRNA in the presence of chemical substance/The level of expressed mRNA in the absence of chemical substance", "setting": "yeast gene YMR073C, cells incubated two hours with the chemical substance", "result": 1.2}, {"measurement": "The level of expressed mRNA in the presence of chemical substance/The level of expressed mRNA in the absence of chemical substance", "setting": "yeast gene YMR118C", "result": 1.0}, {"measurement": "The level of expressed mRNA in the presence of chemical substance/The level of expressed mRNA in the absence of chemical substance", "setting": "yeast gene YMR205C, cells incubated two hours with the chemical substance", "result": 0.5}, {"measurement": "The level of expressed mRNA in the presence of chemical substance/The level of expressed mRNA in the absence of chemical substance", "setting": "yeast gene YMR261C, cells incubated two hours with the chemical substance", "result": 1.1}, {"measurement": "The level of expressed mRNA in the presence of chemical substance/The level of expressed mRNA in the absence of chemical substance", "setting": "yeast gene YMR267W, cells incubated two hours with the chemical substance, 25° C., YPD medium", "result": 1.3}, {"measurement": "The level of expressed mRNA in the presence of chemical substance/The level of expressed mRNA in the absence of chemical substance", "setting": "yeast gene YMR323W, cells incubated two hours with the chemical substance", "result": 0.6}, {"measurement": "The level of expressed mRNA in the presence of chemical substance/The level of expressed mRNA in the absence of chemical substance", "setting": "yeast gene YNL071W", "result": 1.2}, {"measurement": "The level of expressed mRNA in the presence of chemical substance/The level of expressed mRNA in the absence of chemical substance", "setting": "yeast gene YNL202W, cells incubated two hours with the chemical substance", "result": 3.3}, {"measurement": "The level of expressed mRNA in the presence of chemical substance/The level of expressed mRNA in the absence of chemical substance", "setting": "yeast gene YNL241C", "result": 1.0}, {"measurement": "The level of expressed mRNA in the presence of chemical substance/The level of expressed mRNA in the absence of chemical substance", "setting": "yeast gene YNL331C", "result": 1.3}, {"measurement": "The level of expressed mRNA in the presence of chemical substance/The level of expressed mRNA in the absence of chemical substance", "setting": "yeast gene YOL086C, cells incubated two hours with the chemical substance", "result": 1.3}, {"measurement": "The level of expressed mRNA in the presence of chemical substance/The level of expressed mRNA in the absence of chemical substance", "setting": "yeast gene YOL165C", "result": 1.0}, {"measurement": "The level of expressed mRNA in the presence of chemical substance/The level of expressed mRNA in the absence of chemical substance", "setting": "yeast gene YOR142W, cells incubated two hours with the chemical substance", "result": 1.0}, {"measurement": "The level of expressed mRNA in the presence of chemical substance/The level of expressed mRNA in the absence of chemical substance", "setting": "yeast gene YOR178C, cells incubated two hours with the chemical substance", "result": 1.5}, {"measurement": "The level of expressed mRNA in the presence of chemical substance/The level of expressed mRNA in the absence of chemical substance", "setting": "yeast gene YOR388C, cells incubated two hours with the chemical substance", "result": 0.9}, {"measurement": "The level of expressed mRNA in the presence of chemical substance/The level of expressed mRNA in the absence of chemical substance", "setting": "yeast gene YPL031C, cells incubated two hours with the chemical substance", "result": 1.2}, {"measurement": "The level of expressed mRNA in the presence of chemical substance/The level of expressed mRNA in the absence of chemical substance", "setting": "yeast gene YPL061W, cells incubated two hours with the chemical substance", "result": 2.6}, {"measurement": "The level of expressed mRNA in the presence of chemical substance/The level of expressed mRNA in the absence of chemical substance", "setting": "yeast gene YPL088W", "result": 8.3}, {"measurement": "The level of expressed mRNA in the presence of chemical substance/The level of expressed mRNA in the absence of chemical substance", "setting": "yeast gene YPL171C", "result": 1.5}, {"measurement": "The level of expressed mRNA in the presence of chemical substance/The level of expressed mRNA in the absence of chemical substance", "setting": "yeast gene YPL240C", "result": 1.0}, {"measurement": "The level of expressed mRNA in the presence of chemical substance/The level of expressed mRNA in the absence of chemical substance", "setting": "yeast gene YPL262W, cells incubated two hours with the chemical substance", "result": 1.2}, {"measurement": "The level of expressed mRNA in the presence of chemical substance/The level of expressed mRNA in the absence of chemical substance", "setting": "yeast gene YPL275W, cells incubated two hours with the chemical substance", "result": 1.0}, {"measurement": "The level of expressed mRNA in the presence of chemical substance/The level of expressed mRNA in the absence of chemical substance", "setting": "yeast gene YPL276W, cells incubated two hours with the chemical substance", "result": 0.8}, {"measurement": "The level of expressed mRNA in the presence of chemical substance/The level of expressed mRNA in the absence of chemical substance", "setting": "yeast gene YPR048W, cells incubated two hours with the chemical substance", "result": 0.8}, {"measurement": "The level of expressed mRNA in the presence of chemical substance/The level of expressed mRNA in the absence of chemical substance", "setting": "yeast gene YPR184W, cells incubated two hours with the chemical substance", "result": 1.7}]}
